Assays:
[1] = system: Panc-1 Human Pancreatic Carcinoma; test: In vivo evaluation against Panc-1 pancreatic carcinoma xenografts; conditions: for MDS (n): 1.5 g endpoint
Description: In Vivo Evaluation of Antitumor Compounds Against Panc-1 Human Pancreatic Carcinoma
Antitumor compounds were prepared in a vehicle of 5% ethanol, 5% Cremophor and 90% isotonic saline in the manner as described for Solution 1 of Example 10. Taxol (paclitaxel; Bristol Meyers Squibb) was obtained as the marketed pharmaceutical drug. The dosing volume was 0.3 ml per 20 g mouse.
Female NCr-nude mice were implanted subcutaneously with 1 mm^3 Panc-1 pancreatic carcinoma fragments in the flank and sorted into treatment groups of six mice each. […] Dosing was initiated on Day 1. The antitumor compounds were given i.v. at an estimated maximum tolerated dose (MTD) appropriate for each agent on a qd x 1 schedule (single administration of compound). The i.v. taxol was given on the qd x 1 schedule as two split doses (one hour between) of 12 mg/kg per split dose (total dose = 24 mg/kg). Taxol was also administered at a dose of 15 mg/kg i.p. on a qd x 5 schedule. The vehicle was administered i.v. to control mice in Group 1 on the qd x 1 schedule. The study was terminated on Day 63. Treatment groups are detailed in Table 9.
The results are summarized in Table 10 and include mean days of survival (MDS), number of toxic deaths, number of survivors, number of complete or partial responses, and number with stable disease. The mean days of survival is the number of days after which a neoplasm reached a size of 1.5 g and the animal was euthanized. A complete response is obtained […]. […]

[2] = system: A375 Human Melanoma Xenografts; test: In vivo evaluation against A375 melanoma xenografts
Description: In Vivo Evaluation of Antitumor Compounds Against A375 Human Melanoma Xenografts
Antitumor compounds were prepared in a vehicle of 5% ethanol, 5% Cremophor and 90% isotonic saline in the manner as described for Solution 1 of Example 10. Taxol (paclitaxel; Bristol Meyers Squibb) and Taxotere (docetaxel; Rhône-Poulenc Rorer) were obtained as the marketed pharmaceutical drugs. The dosing volume was 0.3 ml per 20 g mouse.
Female NCr-nude mice were implanted subcutaneously with 1 mm^3 A375 melanoma fragments in the flank were sorted into treatment groups of six mice each, except the Taxotere treatment group which was a group of seven mice. […] Dosing was initiated on Day 1. The antitumor compounds were given i.v. at an estimated maximum tolerated dose (MTD) appropriate for each agent on a qd x 1 schedule (single administration of compound). The i.v. taxol was given on the qd x 1 schedule as two split doses (one hour between) of 12 mg/kg per split dose (total dose = 24 mg/kg). Taxol was also administered i.p. on a qd x 5 schedule at a daily dose of 18 mg/kg. Taxotere was given i.v. on a qd x 1 schedule at a dose of 70 mg/kg. The vehicle was administered i.v. to control mice in Group 1 on the qd x 1 schedule. The study was terminated on Day 60. Treatment groups are detailed in Table 7.
The results are summarized in Table 8 and include mean days of survival (MDS), number of toxic deaths, number of survivors, number of complete or partial responses, and number with stable disease. The mean days of survival is the number of days after which a neoplasm reached a size of 2.0 g and the animal was euthanized. A complete response is obtained […].

blood cell populations = test: Effect of oral treatment on blood cell populations, body weight and tumor weight in the MX-1 study; assay type: in vivo, nu/nu mice; conditions: Group 3: 73 mg/kg single oral bolus
Description: Antitumor compounds were administered orally in a study to investigate whether such formulations are efficacious against the MX-1 human breast carcinoma xenograft. The compounds were prepared in the following vehicle: 90% saline, 5% Cremophor, and 5% ethanol. Antitumor compound 1771 was formulated as described for Solution 1 in Example 6. Antitumor compound 1781 was formulated as described for Solution 2 in Example 6.
Female nu/nu mice (11-12 weeks of age; implanted subcutaneously with 1 mm^3 MX-1 human breast carcinoma fragments in the flank) were sorted into one control (n=10) and two treatment (n=6) groups (group mean tumor size of 47-49 mg). Treatment groups are detailed in Table 14.
In addition to survival and tumor regression responses, the effect of treatment on blood cell populations was assessed. The major effect of these antitumor compounds on blood cell populations was a marked reduction in the neutrophil cell number. Monocyte depletion correlated fairly well with neutrophil reduction for each antitumor compound. […] There was a correlation between antitumor activity and reduced neutrophil count. In general, toxicity (as determined by neutrophil depletion) and weight loss correlated with efficacy. Importantly, the toxicities observed with the very efficacious antitumor compounds were manageable and reversible; neutrophil count and body weight rebounded from their nadirs in just a few days. Table 15 summarized the weight reduction, neutrophil and monocyte measurements on Day 4, with tumor weight reduction calculated at Day 18: Table 15

[3] = system: MX-1 Human Breast Carcinoma Xenograft; test: In vivo evaluation of oral administration against MX-1 breast carcinoma xenograft
Description: In Vivo Evaluation of the Oral Administration of Antitumor Compounds Against the MX-1 Human Breast Carcinoma Xenograft
The compounds were prepared in the following vehicle: 90% saline, 5% Cremophor, and 5% ethanol.

[4] = Group 2: 24 mg/kg i.v. qd x 1 (two split doses of 12 mg/kg), 6 mice, study to Day 63
[5] = Group 3: 15 mg/kg i.p. qd x 5, 6 mice, study to Day 63
[6] = Group 2: 24 mg/kg i.v. qd x 1 (two split doses of 12 mg/kg), 6 mice, study to Day 60
[7] = Group 3: 18 mg/kg i.p. qd x 5, 6 mice, study to Day 60
[8] = Group 4: 60 mg/kg i.v. qd x 1, 6 mice, study to Day 63
[9] = Group 3: 73 mg/kg single oral bolus Day 1, 6 mice, study to Day 63
[10] = Group 4: 72.6 mg/kg i.p. qd x 1, 6 mice, study to Day 60

CC(=O)O[C@H]1C(=O)[C@@]2(C)[C@H]([C@H](OC(=O)c3ccccc3)[C@]3(O)C[C@H](OC(=O)[C@H](O)[C@@H](NC(=O)c4ccccc4)c4ccccc4)C(C)=C1C3(C)C)[C@]1(OC(C)=O)CO[C@@H]1C[C@@H]2O [Taxol]
MDS (n) ([1]; Group 2: 24 mg/kg i.v. qd x 1 (two split doses of 12 mg/kg), 6 mice, n=4, study to Day 63): 34.7 ± 3.4(4) days
Complete Response [1, 4]: 0
Mean Score [1, 4]: 2.2 ± 0.8
Partial Response [1, 4]: 0
Stable Disease [1, 4]: 1
Survivors [1, 4]: 1
Complete Response [1, 5]: 0
Mean Score [1, 5]: 1.2 ± 1.2
Partial Response [1, 5]: 1
Stable Disease [1, 5]: 0
Survivors [1, 5]: 1
MDS ([1]; Taxol 24 mg/kg i.v. qd x 1, four mice, 1.5 g cut-off): 34.7 days
Toxic Deaths ([1]; female, NCr-nude, mouse, in vivo): 1
Toxic Deaths ([1]; female, NCr-nude, mouse, in vivo, ip, 15 mg/kg): 4
Stable Disease ([1]; number of cases, Taxol 24 mg/kg i.v. qd x 1, six mice): one
MDS (n) ([2]; Group 2: 24 mg/kg i.v. qd x 1 (two split doses of 12 mg/kg), 6 mice, n=4, 2.0 g endpoint, study to Day 60): 18.1 ± 0.6 (4) days
Complete Response [2, 6]: 0
Mean Score [2, 6]: 0.8 ± 0.3
Partial Response [2, 6]: 0
Stable Disease [2, 6]: 0
Survivors [2, 6]: 0
Toxic Deaths [2, 6]: 2
Complete Response [2, 7]: 0
Mean Score [2, 7]: 0 ± 0
Partial Response [2, 7]: 0
Stable Disease [2, 7]: 0
Survivors [2, 7]: 0
Toxic Deaths [2, 7]: 6
animals died of toxicity ([2]; Taxol 18 mg/kg i.p. qd x 5, six mice): six
survival extension compared to Group 1 controls ([2]; i.v. qd x 1, Taxol 24 mg/kg, Taxotere 70 mg/kg): 26%
MDS ([2]; i.v. qd x 1, Taxol 24 mg/kg, Taxotere 70 mg/kg, 2.0 g cut-off): 18.1 days

CCOC(=O)O[C@H]1C(=O)[C@@]2(C)[C@H]([C@H](OC(=O)c3ccccc3)[C@]3(O)C[C@H](OC(=O)[C@H](O)[C@H](C=C(C)C)NC(=O)OC(C)(C)C)C(C)=C1C3(C)C)[C@]1(OC(C)=O)CO[C@@H]1C[C@@H]2O [Compound 1781]
Monocytes (K/µL) (blood cell populations; Day 4): 0.101 K/µL
Neutrophils (K/µL) (blood cell populations; Day 4): 0.117 K/µL
% Reduction (Neutrophils) (blood cell populations; Day 4, vs vehicle): 87.2%
Weight (blood cell populations; MX-1 tumor weight, Day 18): 275.3 mg
% Reduction (Weight) (blood cell populations; tumor weight reduction calculated at Day 18, vs vehicle): 68.3%
overall response rate ([1]; 1781 i.v. qd x 1 at estimated MTD): 66.7%
MDS (n) ([1]; Group 4: 60 mg/kg i.v. qd x 1, 6 mice, n=2, study to Day 63): 59.3 ± 2.9(2) days
Complete Response [1, 8]: 0
Mean Score [1, 8]: 6.7 ± 1.2
Partial Response [1, 8]: 4
Stable Disease [1, 8]: 0
Survivors [1, 8]: 4
Toxic Deaths [1, 8]: 0
Toxic Deaths ([1]; i.v. qd x 1, Taxol 24 mg/kg, 1781 at estimated MTD, six mice per group): no toxic deaths
mean group weight loss ([1]; mouse, in vivo, iv): minimal
tolerability ([1]; mouse, in vivo, iv): well-tolerated
Mean Day of Survival (n) ([3]; Group 3: 73 mg/kg single oral bolus Day 1, 6 mice, n=5, 1.5 g endpoint, study to Day 63): 33.3 ± 2.9 (5)
Maximum Weight Loss (Day) ([3]; Group 3: 73 mg/kg single oral bolus Day 1, 6 mice, on Day 5): -9.4% (5)
Complete Response [3, 9]: 0
Partial Response [3, 9]: 0
Stable Disease [3, 9]: 1
Toxic Deaths [3, 9]: 0
survival versus vehicle controls ([3]; single oral bolus Day 1, for 1771 the other two mice of the group): significant survival extensions
Toxic Deaths ([2]; 1781 i.v. qd x 1 at estimated MTD, six mice): five
Complete Response [2, 10]: 0
Mean Score [2, 10]: 0.5 ± 0.5
Partial Response [2, 10]: 0
Stable Disease [2, 10]: 0
Survivors [2, 10]: 0
Toxic Deaths [2, 10]: 5
mean group weight losses ([2]; mouse, in vivo, iv): 20-30%
